Where “and” joins values, the source holds several entries; their conditions need not be identical. Equal entries are not always repeated. Where two headings read alike, the source gives them in different places.
Key:
[1] = set-up: method as in Gannon et al. 2016; settings: mice; ref Gannon et al. 2016; cited from earlier work
[2] = set-up: method as in Gannon et al. 2016; settings: rats; ref Gannon et al. 2016; cited from earlier work
[3] = tested on: rats; settings: ref Conley et al. 2019, cited from earlier work
[4] = tested on: CD-1 mice; settings: cited from earlier work
[5] = tested on: Pregnant CD-1 mice; experiment: Maternal indices: dam body weight, gestational weight gain, liver and kidney weight after daily oral gavage E1.5 to E11.5 or E17.5; type: in vivo, mouse (CD-1); settings: for E0.5 weight: baseline; for Relative GWG, E11.5 estimate (95% CI) / Relative GWG, E17.5 Estimate (95% CI) / Relative GWG, E11.5 Estimate (95% CI) relative to VC: adjusted for litter size
Method: (§1) Naïve female CD-1 mice between 7.5 and 15.5 wk of age from the NIEHS colony were bred in-house on a single night, and copulatory plug–positive females were identified on embryonic day (E) 0.5. Pregnant dams were singly housed in ventilated polypropylene cages and received nesting materials, National Institutes of Health (NIH)-31 diet (Zeigler Bros., Inc.) and reverse osmosis deionized (RODI) water ad libitum. Animals were housed in humidity- and temperature-controlled rooms with 25°C and 45–60% average humidity and standard 12-h light cycles. All animal procedures were approved by the NIEHS Animal Care and Use Committee (ASP #2017-0022).
(§2) PFOA and GenX dosing solutions were prepared in RODI water and administered to mice once daily via oral gavage. Daily doses were administered between 0700 and 0800 hours and adjusted to the BW of the mouse based on the previous day’s weight at a volume of 0.01mL/g BW. […] The dose of 1mg/kg BW/d PFOA, used in the mouse developmental toxicity study of [Lau et al. 2006], provided a lowest effect dose that was used to set the reference dose within the U.S. EPA’s drinking water lifetime health advisory level (HAL) of 70 ppt PFOA ([U.S. EPA 2016]).
(§3) This experiment was conducted over two blocks (Block 1 and Block 2) to achieve a total of n=11–13 litters per treatment group and sacrifice time point (E11.5 and E17.5). The experimental design of the second block was identical to the first block of the study, and experimental methods were similar but expanded upon to include more rigorous and detailed measurements. Copulatory plug–positive mice (E0.5) were weighed to obtain a baseline BW and placed into one of five groups. Once all mice were assigned to groups, mean BWs were calculated, and a few animals were reassigned so that mean BWs in each group were similar. This was done to avoid confounding effects of baseline BW. Treatment groups were then randomly assigned a color by using a random sequence generator. Experimenters and dosing technicians were blinded to the treatment group to which the color groups corresponded throughout the duration of the study, including at necropsy. […] Pregnant dams were dosed via oral gavage from E1.5 to E11.5 or from E1.5 to E17.5. […] The E11.5 early-gestation time point was selected because it overlaps a critical period of placental development in the mouse where the placenta undergoes vascularization with the uterine wall and chorioallantoic branching of vessels begins ([Watson and Cross 2005]). The E17.5 late-gestation time point was selected so that embryo weight changes that may be related to treatment would be evident.
(§4) On the day of necropsy, dams received daily oral gavage between 0700 and 0800 hours and were weighed and then euthanized humanely by swift decapitation, and serum was collected. In Block 1, necropsies were completed from 0800 to 1600 hours, and in Block 2, necropsies were completed from 0800 to 1200 hours. Serum from dams euthanized in Block 1 was snap frozen for internal dosimetry analyses. Serum and urine from Block 2 dams were reserved for clinical chemistry analyses. In both blocks, the uterus was removed, and total implantation sites were counted based on gross observation of an implantation nodule along the uterine horn. Viable embryos, nonviable embryos, and sites of resorption were counted based on gross observation. Embryos were considered viable if they were properly formed, were not pale in color, and were of similar size to neighboring embryos. Embryos that were poorly formed and pale in color (without heartbeat) were considered nonviable. Sites of resorption were defined as a dark red–appearing clot-like nodule apparent on gross observation.
(§5) From each uterus, first, viable embryos and their matched placentas were collected in succession within a horn and immediately snap frozen ( n=2–5 per litter ), and subsequent embryos were collected for growth measurements ( n=2–11 per litter ). […]

[6] = as above; type: in vivo, mouse (CD-1); settings: female, CD-1, mouse, in vivo, oral; dam systemic toxicity: liver alterations, higher GWG, placental lesions; read-out: Lowest dose group evaluated, with significant adverse effects (no NOAEL reportable)
Method: as §1, §2, §3, §4, §5

[7] = tested on: humans; set-up: method as in Johnson et al. 2014; settings: meta-analysis; ref Johnson et al. 2014; cited from earlier work
[8] = set-up: method as in Olsen et al. 2007; settings: ref Olsen et al. 2007; cited from earlier work
[9] = tested on: mice; set-up: method as in Koustas et al. 2014; settings: pregnant dams; meta-analysis; ref Koustas et al. 2014; cited from earlier work

N.O=C(O)C(F)(OC(F)(F)C(F)(F)C(F)(F)F)C(F)(F)F (stereo not shown) [GenX, ammonium 2,3,3,3-tetrafluoro-2-(heptafluoropropoxy)propanoate]
Elimination half-life [1]: ~20 h | Elimination half-life [2]: ~5 h | LOAEL, disrupted maternal lipids ([3]; gestational exposure): 125 mg/kg/day | LOAEL, disrupted maternal thyroid hormone ([3]; gestational exposure): 30 mg/kg/day | LOAEL, lower BWs in gestationally exposed female offspring [3]: 125 mg/kg/day | Dam plasma concentration ([4]; 5 mg/kg/d on lactation day 21, ref DuPont-18,405-1,037): 36.4 µg/mL | NOAEL for reproductive toxicity and maternal systemic toxicity ([4]; microscopic changes in maternal liver, ref DuPont-18,405-1,037 (Edwards 2010b)): 5 mg/kg/day | Kidney weight ([5]; E11.5, 2 mg/kg/d): 0.22 ± 0.02 g | Liver weight ([5]; E11.5, 2 mg/kg/d): 3.1 ± 0.2 g | Weight at necropsy ([5]; E11.5, 2 mg/kg/d): 38.3 ± 3.2 g | Weight at necropsy (% change from E0.5) ([5]; E11.5, 2 mg/kg/d): 28.9±5.4% | Kidney weight ([5]; E11.5, 10 mg/kg/d): 0.23 ± 0.06 g | Liver weight ([5]; E11.5, 10 mg/kg/d): 4.2 ± 0.5 g | Weight at necropsy ([5]; E11.5, 10 mg/kg/d): 40.0 ± 2.5 g | Weight at necropsy (% change from E0.5) ([5]; E11.5, 10 mg/kg/d): 32.3±9.6 % | E0.5 weight ([5]; E11.5 group, 2 mg/kg/d): 29.7 ± 2.2 g | E0.5 weight ([5]; E11.5 group, 10 mg/kg/d): 30.7 ± 2.5 g | Kidney weight ([5]; E17.5, 2 mg/kg/d): 0.21 ± 0.02 g | Liver weight ([5]; E17.5, 2 mg/kg/d): 3.5 ± 0.5 g | Weight at necropsy ([5]; E17.5, 2 mg/kg/d): 55.4 ± 6.5 g | Weight at necropsy (% change from E0.5) ([5]; E17.5, 2 mg/kg/d): 97.3±15.2% | Kidney weight ([5]; E17.5, 10 mg/kg/d): 0.25 ± 0.02 g | Liver weight ([5]; E17.5, 10 mg/kg/d): 4.6 ± 0.4 g | Weight at necropsy ([5]; E17.5, 10 mg/kg/d): 56.7 ± 5.5 g | Weight at necropsy (% change from E0.5) ([5]; E17.5, 10 mg/kg/d): 98.5±15.7% | E0.5 weight ([5]; E17.5 group, 2 mg/kg/d): 28.2 ± 3.5 g | E0.5 weight ([5]; E17.5 group, 10 mg/kg/d): 28.7 ± 3.6 g | LOAEL [6]: 2 mg/kg/day

O=C(O)C(F)(F)C(F)(F)C(F)(F)C(F)(F)C(F)(F)C(F)(F)C(F)(F)F [PFOA, Perfluorooctanoic acid]
Shift in birth weight per 1-ng/mL increase in serum PFOA [7]: -18.9 g | Human half-life [8]: ~3.5 y | Shift in pup birth weight per 1-mg/kg BW/d increase in PFOA dose [9]: -0.023 g | Kidney weight ([5]; E11.5, 1 mg/kg/d): 0.20 ± 0.02 g | Liver weight ([5]; E11.5, 1 mg/kg/d): 2.9 ± 0.2 g | Relative kidney weight ([5]; E11.5, 1 mg/kg/d): 0.51±0.04 % BW | Relative liver weight ([5]; E11.5, 1 mg/kg/d): 7.4±0.5 % BW | Weight at necropsy ([5]; E11.5, 1 mg/kg/d): 38.8 ± 2.4 g | Weight at necropsy (% change from E0.5) ([5]; E11.5, 1 mg/kg/d): 24.7±6.3% | Kidney weight ([5]; E11.5, 5 mg/kg/d): 0.21 ± 0.03 g | Liver weight ([5]; E11.5, 5 mg/kg/d): 4.5 ± 0.5 g | Relative kidney weight ([5]; E11.5, 5 mg/kg/d): 0.51±0.05 % BW | Relative liver weight ([5]; E11.5, 5 mg/kg/d): 11.0±0.9 % BW | Weight at necropsy ([5]; E11.5, 5 mg/kg/d): 40.2 ± 3.5 g | Weight at necropsy (% change from E0.5) ([5]; E11.5, 5 mg/kg/d): 29.6±6.3% | E0.5 weight ([5]; E11.5 group, 1 mg/kg/d): 31.2 ± 3 g | E0.5 weight ([5]; E11.5 group, 5 mg/kg/d): 31.1 ± 3.2 g | Kidney weight ([5]; E17.5, 1 mg/kg/d): 0.22 ± 0.04 g | Liver weight ([5]; E17.5, 1 mg/kg/d): 3.1 ± 0.4 g | Relative kidney weight ([5]; E17.5, 1 mg/kg/d): 0.40±0.04 % BW | Relative liver weight ([5]; E17.5, 1 mg/kg/d): 5.6±0.5 % BW | Weight at necropsy ([5]; E17.5, 1 mg/kg/d): 54.6 ± 5.3 g | Weight at necropsy (% change from E0.5) ([5]; E17.5, 1 mg/kg/d): 92.6±17.1% | Kidney weight ([5]; E17.5, 5 mg/kg/d): 0.24 ± 0.03 g | Liver weight ([5]; E17.5, 5 mg/kg/d): 5.3 ± 0.5 g | Relative kidney weight ([5]; E17.5, 5 mg/kg/d): 0.40±0.03 % BW | Relative liver weight ([5]; E17.5, 5 mg/kg/d): 9.3±0.7 % BW | Weight at necropsy ([5]; E17.5, 5 mg/kg/d): 57.4 ± 6.0 g | Weight at necropsy (% change from E0.5) ([5]; E17.5, 5 mg/kg/d): 98.7±20.2% | E0.5 weight ([5]; E17.5 group, 1 mg/kg/d): 28.5 ± 3.8 g | E0.5 weight ([5]; E17.5 group, 5 mg/kg/d): 29.1 ± 3.4 g | Relative GWG, E11.5 estimate (95% CI) ([5]; 1 mg/kg/d): 16.2 (-0.2, 32.5) % gain from embryonic day 0.5 | Relative GWG, E17.5 Estimate (95% CI) ([5]; 1 mg/kg/d): 44.9 (6.5, 83.3) % gain from embryonic day 0.5 | Relative GWG, E11.5 Estimate (95% CI) relative to VC ([5]; 5 mg/kg/d): 4.3 (-1.8, 10.5) % gain from embryonic day 0.5 | Relative GWG, E11.5 estimate (95% CI) ([5]; 5 mg/kg/d): 21.6 (5.4, 37.9) % gain from embryonic day 0.5 | Relative GWG, E17.5 Estimate (95% CI) ([5]; 5 mg/kg/d): 50.7 (12.2, 89.0) % gain from embryonic day 0.5 | Relative GWG, E11.5 Estimate (95% CI) relative to VC ([5]; 5 mg/kg/d, 5 mg/kg/day): 14.5 (1.4, 27.5) % gain from embryonic day 0.5 and 14.5 % gain from embryonic day 0.5 | Relative GWG, E11.5 Estimate (95% CI) relative to VC ([5]; fourth column (after E17.5 estimate), 1 mg/kg/d): 8.7 (-4.3, 21.8) % gain from embryonic day 0.5 | Relative GWG, E11.5 Estimate (95% CI) relative to VC ([5]; second column, 1 mg/kg/d): -1.1 (-7.4, 5.1) % gain from embryonic day 0.5
